EC50, IC50 and GI50 data for 17 compounds are collected here from patent US10517849B2, “LSD1 inhibitors and medical uses thereof” (Constellation Pharmaceuticals, Inc., priority 2016, dated 2019).

As usually defined, the EC50 is the concentration giving half of the maximal effect. A high value points to a less potent agent. Usually IC50 stands for the concentration that gives 50% inhibition. Low values mean greater potency in that assay, high ones weaker potency in that assay. The term GI50 denotes the concentration at which growth is held to half of that of the control.

Structures are written as SMILES. Counter-ions that a name gives are not always drawn.

Experiment [1] has as its system LY-96 mRNA induction in MV4-11 cells. Briefly: LSD1 LY96 Quantigene Assay. It is filed as cell-based. To be noted: Homo sapiens, 16 h, Quantigene 2.0. The method, then: MV4-11 cells were cultured at a density of 4×10^4 cells per well in a 96-well plates and treated with various doses inhibitor starting from 10 μM up to 0.0005 μM for 16 h. The LY-96 mRNA induction was quantified using the Quantigene 2.0 system (Affymetrix). The cells were lysed with Lysis Mixture containing Proteinase K. The working reagent for capturing the RNA was prepared according to the steps detailed in “Capturing Target RNA from Cultured Cell or Blood Lysates” in the Quantigene handbook. The subsequent hybridization with LY-96 probe, signal amplification and detection steps were performed as described in the manual. The chemiluminescence was read using Envision (PerkinElmer) and Abase (IDBS software) was used to plot the dose response curves and calculate IC50.

For experiment [2], the target named is LSD1 (Homo sapiens (Human), UniProt O60341). The experiment can be described thus: LSD1 TR-FRET Assay. Particulars: biotinylated H3K4me1 peptide 4 μM, 10 nM LSD1, 40 nM FAD, 50 minutes at room temperature. It is filed as biochemical. The method, then: LSD1 demethylase reactions were carried out in 50 mM HEPES pH 7.4, 100 mM NaCl, 1 mM DTT, 0.01% Tween-20, and 0.1 mg/mL BSA. All enzymatic reactions were performed for 50 minutes at room temperature in a 10-μL volume. Five microliters of 8 μM biotinylated H3K4me1 peptide solution was added to each well of a black 384 well, clear-bottom assay plate containing 80 nL compound (final concentration of 0.8% DMSO and 4 μM substrate). Reactions were initiated by the addition of a mixture containing 20 nM LSD1 and 80 nM FAD (5 μL). LSD1 and FAD final concentrations were 10 and 40 nM, respectively. Enzyme activity was stopped by the addition of 90 μL of high salt buffer consisting of 50 mM HEPES pH 7.4, 500 mM NaCl, 1 mM DTT, 0.01% Tween-20, and 0.1 mg/mL BSA. Ten microliters of the quenched reaction mixtures were transferred to a black 384 well ProxiPlate. Ten microliters of detection mixture was added to the ProxiPlate, Europium-labeled antibody and Streptavidin APC were used at final concentrations of 0.3 nM and 200 nM, respectively (total assay volume of 20 μL). Capture of the product peptide by the anti-H3K4me0 antibody and Streptavidin APC was allowed to proceed for 60 min at room temperature before measuring the TR-FRET signal. Plates were read on a Perkin Elmer EnVision. Percent inhibition was calculated using Max (no inhibitor) and Min (quenched with stop buffer) controls and inhibition curves plotted to determine IC50 values.

In experiment [3] the test system is Kasumi-1. The experiment can be described thus: Kasumi-1 GI50 Assay. In kind it is cell-based. To be noted: Homo sapiens, 288 h; Kasumi-1 cells, 12 days, Cell Titer-Glo viability. The protocol: Cells were plated at 5,000 cells per well in 96 well tissue culture dishes containing tool compounds arrayed in a 10-point dose curve, ranging from […] with 4-fold dilutions, and split every fourth day at a fixed ratio to re-establish 5,000 cells/well density for DMSO-treated controls. Cell treatments were carried out for a total of 12 days. At each 4-day split, the viable cell numbers were determined using the Cell Titer-Glo luminescent cell viability assay (Promega, Madison, Wis. USA) using an EnVision® Multilabel Plate Reader (Perkin Elmer, Waltham, Mass. USA). GraphPad Prism 6 (GraphPad Software, Inc., La Jolla, Calif. USA) was used for curve fitting and determination of GI50 values.
(In ATP-based viability assays light output follows the ATP content of the culture.)

On to `CC/C(=C\c1ccccc1)[C@@H]1C[C@H]1NC1CC2(C1)CN(CCO)C2` [Compound 1, 2-(6-(((1R,2S)-2-((E)-1-phenylbut-1-en-2-yl)cyclopropyl)amino)-2-azaspiro[3.3]heptan-2-yl)ethanol], for which the EC50 in experiment [1] is less than 100 nM. In addition, the IC50 in experiment [2] is less than 100 nM. In experiment [3], the GI50 was less than 100 nM.

Turning to `CC/C(=C\c1ccccc1)[C@@H]1C[C@H]1NC1CC2(C1)CN(C(CO)CO)C2` [Compound 2, 2-(6-(((1R,2S)-2-((E)-1-phenylbut-1-en-2-yl)cyclopropyl)amino)-2-azaspiro[3.3]heptan-2-yl)propane-1,3-diol], the EC50 in experiment [1] was less than 100 nM. Also, the IC50 in experiment [2] was less than 100 nM. For the same compound, the GI50 in experiment [3] was less than 100 nM.

`CC/C(=C\c1ccccc1)[C@@H]1C[C@H]1NC1CC2(C1)CN(CCNS(C)(=O)=O)C2` [Compound 4, N-(2-(6-(((1R,2S)-2-((E)-1-phenylbut-1-en-2-yl)cyclopropyl)amino)-2-azaspiro[3.3]heptan-2-yl)ethyl)methanesulfonamide bis(2,2,2-trifluoroacetate)]: the EC50 in experiment [1] was less than 100 nM. In experiment [2], the IC50 was less than 100 nM. In addition, in experiment [3], the GI50 is less than 100 nM.

Take `CC/C(=C\c1ccccc1)[C@@H]1C[C@H]1NC1CC2(CCN(CCO)CC2)C1` [Compound 11, 2-(2-(((1R,2S)-2-((E)-1-phenylbut-1-en-2-yl)cyclopropyl)amino)-7-azaspiro[3.5]nonan-7-yl)ethanol dihydrochloride]: the EC50 in experiment [1] was less than 100 nM. Moreover, the IC50 in experiment [2] is less than 100 nM. Moreover, the GI50 in experiment [3] was less than 100 nM.

Turning to `CC/C(=C\c1ccccc1)[C@@H]1C[C@H]1NC1CC2(C1)CN(CC(=O)NCCO)C2` [Compound 13, N-(2-hydroxyethyl)-2-(6-(((1R,2S)-2-((E)-1-phenylbut-1-en-2-yl)cyclopropyl)amino)-2-azaspiro[3.3]heptan-2-yl)acetamide bis(2,2,2-trifluoroacetate)], the EC50 in experiment [1] is less than 100 nM. For the same compound, the IC50 in experiment [2] was less than 100 nM. In experiment [3], the GI50 is less than 100 nM.

In turn, `CC/C(=C\c1ccccc1)[C@@H]1C[C@H]1NC1CC2(CCN(CCOC)CC2)C1` [Compound 17, 7-(2-methoxyethyl)-N-((1R,2S)-2-((E)-1-phenylbut-1-en-2-yl)cyclopropyl)-7-azaspiro[3.5]nonan-2-amine dihydrochloride] showed an EC50 in experiment [1] of less than 100 nM. The same compound showed an IC50 in experiment [2] of less than 100 nM. Moreover, in experiment [3], the 50% growth inhibitory concentration (GI50) was less than 100 nM.

Compound `CC/C(=C\c1ccccc1)[C@@H]1C[C@H]1NC1CC2(CCN(C[C@@H](O)CO)CC2)C1` [Compound 19, (R)-3-(2-(((1R,2S)-2-((E)-1-phenylbut-1-en-2-yl)cyclopropyl)amino)-7-azaspiro[3.5]nonan-7-yl)propane-1,2-diol dihydrochloride] gave an EC50 in experiment [1] of less than 100 nM. In experiment [3], the GI50 is less than 100 nM.

In experiment [1], `CC/C(=C\c1ccccc1)[C@@H]1C[C@H]1NC1CC2(CCN(C[C@H](O)CO)CC2)C1` [Compound 20, (S)-3-(2-(((1R,2S)-2-((E)-1-phenylbut-1-en-2-yl)cyclopropyl)amino)-7-azaspiro[3.5]nonan-7-yl)propane-1,2-diol dihydrochloride] returned an EC50 of less than 100 nM. The GI50 in experiment [3] is less than 100 nM.

As for `CC/C(=C\c1ccccc1)[C@@H]1C[C@H]1NC1CC2(C1)CN(CCC(N)=O)C2` [Compound 22, 3-(6-(((1R,2S)-2-((E)-1-phenylbut-1-en-2-yl)cyclopropyl)amino)-2-azaspiro[3.3]heptan-2-yl)propanamide bis(2,2,2-trifluoroacetate)], the EC50 in experiment [1] is less than 100 nM. In experiment [2], this compound came in with an IC50 of less than 100 nM. Moreover, the GI50 in experiment [3] was less than 100 nM.

`CC/C(=C\c1ccccc1)[C@@H]1C[C@H]1NC1CC2(CCN(CCS(N)(=O)=O)CC2)C1` [Compound 23, 2-(2-(((1R,2S)-2-((E)-1-phenylbut-1-en-2-yl)cyclopropyl)amino)-7-azaspiro[3.5]nonan-7-yl)ethanesulfonamide dihydrochloride] yielded an EC50 in experiment [1] of less than 100 nM. This compound returned an IC50 in experiment [2] of less than 100 nM. Besides, in experiment [3], the GI50 is less than 100 nM.

As for `CC/C(=C\c1ccccc1)[C@@H]1C[C@H]1NC1CC2(CCN(CCC(N)=O)CC2)C1` [Compound 24, 3-(2-(((1R,2S)-2-((E)-1-phenylbut-1-en-2-yl)cyclopropyl)amino)-7-azaspiro[3.5]nonan-7-yl)propanamide dihydrochloride], the EC50 in experiment [1] is less than 100 nM. Further, in experiment [3], the GI50 is less than 100 nM.

In experiment [1], `CC/C(=C\c1ccccc1)[C@@H]1C[C@H]1NC1CC2(C1)CN(CC(=O)NCCS(C)(=O)=O)C2` [Compound 26, N-(2-(methylsulfonyl)ethyl)-2-(6-(((1R,2S)-2-((E)-1-phenylbut-1-en-2-yl)cyclopropyl)amino)-2-azaspiro[3.3]heptan-2-yl)acetamide bis(2,2,2-trifluoroacetate)] registered an EC50 of less than 100 nM. Besides, the GI50 in experiment [3] was less than 100 nM.

Compound `CC/C(=C\c1ccccc1)[C@@H]1C[C@H]1NC1CC2(C1)CN(CC(=O)NC(C)C)C2` [Compound 27, N-isopropyl-2-(6-(((1R,2S)-2-((E)-1-phenylbut-1-en-2-yl)cyclopropyl)amino)-2-azaspiro[3.3]heptan-2-yl)acetamide bis(2,2,2-trifluoroacetate)] showed an EC50 in experiment [1] of less than 100 nM. The GI50 in experiment [3] is less than 100 nM.

On to `CC/C(=C\c1ccccc1)[C@@H]1C[C@H]1NC1CC2(C1)CN(CC(=O)N(C)C)C2` [Compound 28, N,N-dimethyl-2-(6-(((1R,2S )-2-((E)-1-phenylbut-1-en-2-yl)cyclopropyl)amino)-2-azaspiro[3.3]heptan-2-yl)acetamide bis(2,2,2-trifluoroacetate)], for which the EC50 in experiment [1] is less than 100 nM. Moreover, the GI50 in experiment [3] was less than 100 nM.

For the compound `CC/C(=C\c1ccccc1)[C@@H]1C[C@H]1NC1CC2(C1)CN(CC(=O)NS(C)(=O)=O)C2` [Compound 29, N-(methylsulfonyl)-2-(6-(((1R,2S)-2-((E)-1-phenylbut-1-en-2-yl)cyclopropyl)amino)-2-azaspiro[3.3]heptan-2-yl)acetamide bis(2,2,2-trifluoroacetate)], the EC50 in experiment [1] was less than 100 nM. Besides, the GI50 in experiment [3] is less than 100 nM.

For `CC/C(=C\c1ccccc1)[C@@H]1C[C@H]1NC1CC2(C1)CN(C(C)C(N)=O)C2` (stereo partly drawn) [Compound 30, 2-(6-(((1R,2S)-2-((E)-1-phenylbut-1-en-2-yl)cyclopropyl)amino)-2-azaspiro[3.3]heptan-2-yl)propanamide bis(2,2,2-trifluoroacetate)], in experiment [1], the EC50 is less than 100 nM. For the same compound, the GI50 in experiment [3] was less than 100 nM.

On to `CC/C(=C\c1ccccc1)[C@@H]1C[C@H]1NC1CC2(C1)CN(CCS(N)(=O)=O)C2` [Compound 32], for which, in experiment [1], the EC50 was less than 100 nM. Besides, in experiment [2], the IC50 was less than 100 nM. Besides, the GI50 in experiment [3] is less than 100 nM.
